{"source": "patent US9855320B2", "about": "“Angiogenin for treatment of glaucoma” (CHUNG-ANG UNIVERSITY INDUSTRY-ACADEMIC COOPERATION …, priority 2011, dated 2018)", "key": {"CD11b": {"test_system": "CD11b", "assay": "Reverse transcription polymerase chain reaction of CD11b in retinal tissue, chronic intraocular pressure increase model", "format": "in vivo", "settings": "seventh day after episcleral venous electric ablation, compared to the control and the normal rat group", "procedure": "(§1) 0.05 cc/50 g of Tiletimine and Zolazepam-mixed medicament (Zoletil) and Xylazine (Rompum) were mixed at a ratio of 1:1 and then administered to 20 rats by intramuscular injection, thereby anesthetizing the rats. A limbus periphery was divided into four portions, each of which was then subjected to 2 mm dissection at an interval of 90 degrees, and then, two radial conjunctival excisions were performed on upper dissection periphery. […] After surgical isolation of vein, the vein was lifted up by using 3 mm-width spatula to be spaced apart from the peripheral tissue, and then, was subjected to electric ablation while being careful for the peripheral tissue not to have any thermal damage or any mechanical damage due to contact. Intraocular pressure was consecutively measured three or more times by using Tonopen (Solan, Fla., USA), and only reliable intraocular pressure values within 5 percentile were recorded. […] Before the operation, and 3 days, and 1, 2, 4, and 8 weeks after the operation, intraocular pressure was measured, and the rats were sacrificed to extract eyes therefrom, which were then subjected to tissue examination and immunechemical staining with respect to Brn-3a and CD11b, and a reverse transcription polymerase chain reaction was used to measure CD11b value in retinal tissue. […]"}, "normal white rat": {"test_system": "normal white rat", "assay": "Intraocular pressure change due to instillation in normal white rats (day-time and night-time)", "format": "in vivo", "procedure": "White rats were grouped as a physiological saline solution instillation group, an angiogenin (recombinant human angiogenin, R&D systems, USA) 50 μg/ml instillation group, an angiogenin fragment (angiogenin 108-122, SEQ ID NO: 1, BACHEM, USA) instillation group, and a latanoprost 50 μg/ml instillation group, and each group consisted of 6 rats, that is, 12 eyes. Instillation test was repeatedly performed on normal rats and glaucoma model rats. Ophthalmic agent was administered at 8 AM and 8 PM in an amount of 4 μl to compare day-time effects and night-time effects, and 1, 3, 6, 9, 12, and 24 hours after the instillation, intraocular pressure was measured."}, "[1]": {"test_system": "nitric oxide (NO) concentration in aqueous humor", "assay": "NO concentration in aqueous humor after instillation (Griess assay)", "format": "in vivo, rat", "settings": "1 hour after the initial instillation, 50 μg/ml, day-time and night-time test, rank among instillation groups", "procedure": "Normal rat models were divided into 4 groups, each group consisting of 6 rats, that is, 12 eyes, and at 8 AM and 8 PM, each group was instilled with angiogenin 50 μg/ml, angiogenin fragment 50 μg/ml, and latanoprost 50 μg/ml, and 1, 3, and 6 hours after instillation, 15 to 20 μl of aqueous humor was extracted from two rats, that is, 4 eyes for each group. For the extraction of aqueous humor, first, rats were anesthetized, and then, corneal dissection was performed in a direction from at 9 o'clock outside each eye toward microkeratome, and then, a capillary tube was brought into contact through a dissection wound to absorb aqueous humor, which was then moved to an eppendroff tube and frozen-preserved at a temperature of −70 degrees. Thereafter, nitric oxide (NO) concentration in aqueous humor was measured by Griess assay (nitric oxide colorimetric assay kit, Biovision, USA). The aqueous humor was diluted 10 times and then mixed with the same amount of griess solution and reacted together for 10 minutes. The reaction product was moved onto a well plate and then, absorbance of nitrate, which is a NO formation reactant, was measured by using spectrophotometer at a wavelength of 540 nm and compared with a reference value to quantify the nitrate."}, "[2]": {"test_system": "Brn-3a marked retinal ganglion cell", "assay": "Brn-3a immunochemical staining of retina, chronic intraocular pressure increase model", "format": "in vivo, rat", "procedure": "as §1"}, "TGF-β": {"test_system": "TGF-β", "assay": "Reverse transcription polymerase chain reaction on injured tissue of corneal chemical burn model, TGF-β", "format": "in vivo, rat", "settings": "third day and seventh day after keratoconjunctival chemical injury", "procedure": "Three days, and 1, 2, 4, and 8 weeks after injuring, corneal opacity and neoangiogenesis level were assessed in consideration of images of anterior ocular segment, and on the third day and the seventh day, the respective conjunctiva damaged parts were collected and then subjected to a reverse transcription polymerase chain reaction to assay expression of IL-1a, TGF-β, SDF-1, and caspase-3.\nTissues obtained from chronic intraocular pressure increase model and corneal chemical burn model were frozen, and then cut into small parts by using a fine knife. The tissue parts were treated with 1 ml of TRI reagent (Molecular Research Center, Inc.) and then, tissue and cell were lysed by homogenizer. The respective implication cDNA […] 0.2 mM dNTP, 10×buffer, 10 pmols primer, and 0.2 U Taq polymerase were mixed to obtain a volume of 20 μl, and then, PCR thermal cycler (a machine for PCR) was used for reaction for 5 minutes at 95° C., 40 second at 94° C., 40 seconds at 48 to 64° C., 40 seconds (35 cycles) at 72° C., and 10 minutes at 72° C. The amplified polymerase chain reaction product was identified by 1% agarose gel electrophoresis. β actin was used as a positive control for the polymerase chain reaction, and relative expression morphs of a target gene with respect to β actin expression were compared. […]"}, "CD11b marked macrophage": {"test_system": "CD11b marked macrophage", "assay": "CD11b immunochemical staining of retina, chronic intraocular pressure increase model", "format": "in vivo, rat", "procedure": "as §1"}}}
{"substance": "angiogenin: recombinant human angiogenin (R&D systems); 14.4 kDa single chain protein of 123 amino acids, a ribonuclease inducing angiogenesis", "values": [{"measurement": "CD11b expression in retina", "setting": "CD11b", "result": "significantly higher"}, {"measurement": "time after instillation up to which significant intraocular pressure reduction was maintained", "setting": "normal white rat; day-time instillation", "result": "up to 9 hours"}, {"measurement": "time after instillation at which average intraocular pressure began to significantly decrease", "setting": "normal white rat; day-time instillation, 50 μg/ml", "result": 1, "unit": "h"}, {"measurement": "intraocular pressure reduction compared to the pre-instillation intraocular pressure", "setting": "normal white rat; day-time instillation, 50 μg/ml 4 μl, maintained up to 9 hours after the instillation", "result": "−1.8±0.4", "unit": "mmHg"}, {"measurement": "time after instillation up to which significant intraocular pressure reduction was maintained", "setting": "normal white rat; night-time instillation", "result": "up to 24 hours"}, {"measurement": "intraocular pressure reduction compared to that before instillation", "setting": "normal white rat; night-time instillation, 50 μg/ml, maintained up to 24 hours after the instillation", "result": "−1.5±0.4", "unit": "mmHg"}, {"measurement": "intraocular pressure reduction (in words)", "setting": "normal white rat; night-time instillation, 1 hour after the instillation", "result": "significant intraocular pressure reduction"}, {"measurement": "NO concentration increase in aqueous humor", "setting": "[1]", "result": "greatest NO concentration increase"}, {"measurement": "density of Brn-3a marked retinal ganglion cell", "setting": "[2]", "result": "well maintained"}, {"measurement": "TGF-β expression compared to the control", "setting": "TGF-β", "result": "less expressed"}, {"measurement": "distribution of CD11b marked macrophage in retinal ganglion layer", "setting": "CD11b marked macrophage", "result": "highly frequently distributed"}]}
